From ChEMBL document CHEMBL1201862, “PubChem BioAssay data set” (2004)
The source made the active and inactive calls.

Columns and labels:
[1] = inhibitors of clade B AD8 Env fusion, dose response, cell-based, cherry-pick (AID 652062); format: functional;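 note: luciferase signal from cell-cell fusion driven by HIV-1 clade B AD8 Env; potency is for inhibitors of fusion seen as a drop in luminescence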
[2] = biological target: T1, COUP transcription factor 2 (Homo sapiens, UniProt P24468); experiment: Luminescence-based cell-based high throughput dose response assay to identify inhibitors of COUP-TFII (NR2F2).; format: functional;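 note: HEK293 cells transiently cotransfected with COUP-TFII expression vector and reporter; luciferase reporter luminescence driven by COUP-TFII from the pX2-168 reporter plasmid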
T1 sequence (P24468 whole entry): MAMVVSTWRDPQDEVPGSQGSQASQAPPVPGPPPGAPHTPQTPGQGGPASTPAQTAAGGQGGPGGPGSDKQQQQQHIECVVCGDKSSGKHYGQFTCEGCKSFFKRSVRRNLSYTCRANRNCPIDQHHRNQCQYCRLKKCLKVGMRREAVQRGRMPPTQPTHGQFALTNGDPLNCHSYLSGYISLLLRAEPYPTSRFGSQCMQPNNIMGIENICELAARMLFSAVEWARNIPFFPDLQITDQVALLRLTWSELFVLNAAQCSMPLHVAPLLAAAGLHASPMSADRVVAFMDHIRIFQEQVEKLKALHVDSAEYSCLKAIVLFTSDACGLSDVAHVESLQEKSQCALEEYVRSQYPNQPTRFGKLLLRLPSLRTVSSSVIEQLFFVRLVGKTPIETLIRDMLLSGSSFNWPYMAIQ

[3] = microbe, parasite or virus in culture; format: functional; conditions: Mycobacterium tuberculosis
[4] = cytotoxicity in HEK-293T cells, dose response, cytotoxicity control for TCR NF-kB inhibitor project, luminescence, T-cell screen hits (AID 489026); format: functional, cell-based;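 note: cells exposed to compound about 14 hours before the viability readout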
[5] = biological target: T2, Fatty acid synthase (Homo sapiens, UniProt P49327); experiment: FAS thioesterase domain inhibitors, dose response, biochemical, kinetic fluorescence intensity (AID 624326); format: functional;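 note: rate of fluorescence rise from hydrolysis of a fluorogenic O-methyl fluorescein ester substrate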
[6] = CEM21 lymphoblast cell cytotoxicity, dose response, cytotoxicity control for viral fusion inhibitor project, CellTiter-Glo luminescence, cherry-picked (AID 652042); format: functional, cell-based;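 note: potency for signal decrease meaning cytotoxicity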
[7] = biological target: T2, Fatty acid synthase; experiment: FAS thioesterase domain inhibitors, dose response, biochemical, endpoint fluorescence intensity, uHTS hits (AID 624327); format: functional;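 note: fluorescence from hydrolysis of an O-methyl fluorescein acyl ester substrate by the enzyme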
[8] = biological target: T3, fMet-Leu-Phe receptor (Homo sapiens, UniProt P21462); experiment: FPR ligands, dose response (AID 519); format: functional
T3 sequence (P21462 whole entry): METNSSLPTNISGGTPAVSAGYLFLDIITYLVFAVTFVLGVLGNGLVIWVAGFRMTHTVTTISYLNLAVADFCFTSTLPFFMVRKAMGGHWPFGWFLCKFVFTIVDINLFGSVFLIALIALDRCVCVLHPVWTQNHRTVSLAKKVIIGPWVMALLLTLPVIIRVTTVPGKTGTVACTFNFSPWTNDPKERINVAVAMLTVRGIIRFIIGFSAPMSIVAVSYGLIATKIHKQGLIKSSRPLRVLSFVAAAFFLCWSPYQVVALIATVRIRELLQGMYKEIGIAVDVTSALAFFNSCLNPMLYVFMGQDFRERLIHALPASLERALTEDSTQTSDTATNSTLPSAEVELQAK

[9] = cytotoxicity toward DRD oncogenic fibroblasts, dose response, cell-based, non-viral oncogenic, luminescence (AID 1934); format: functional; conditions: Homo sapiens
[10] = HEK293T cytotoxicity, dose response, cytotoxicity control for miR-122 modulator project, cell-based, inhibitor set, cherry-pick, set 2 (AID 720697); format: functional
[11] = miR-122 activators in hepatoma reporter cells, dose response, cell-based, Huh7 psiCHECK-miR122, Renilla luciferase, cherry-picked (AID 651956); format: functional;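 note: huh7 hepatoma cells stably carrying a psiCHECK-2 miR-122 sensor plasmid; renilla luciferase signal reporting endogenous miR-122 activity after 48 h compound exposure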
[12] = tested on: BJ; experiment: cytotoxicity toward BJ-TERT-LT-ST fibroblasts, dose response, cell-based, RAS-independent, luminescence (AID 1935); format: functional; conditions: Homo sapiens;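 note: BJ fibroblasts immortalized with TERT plus LT and ST oncogenes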
[13] = biological target: Paired box protein Pax-8 (Homo sapiens, UniProt Q06710); experiment: inhibitors of PAX8-driven TPO luciferase reporter, dose response, RMG-I cells, cherry-pick (AID 687027); format: functional, cell-based;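 note: luciferase reporter driven by Pax8 target thyroperoxidase promoter measured by SteadyGlo luminescence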
[14] = tested on: BJ; experiment: cytotoxicity toward Ras-transformed BJeLR fibroblasts, dose response, cell-based, alamar blue fluorescence, cherrypicked samples (AID 2631); format: functional; conditions: Homo sapiens;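 note: confirmatory dose-response assay in RAS-dependent BJ fibroblasts engineered with TERT, LT and ST, with cytotoxicity read by fluorescence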
[15] = tested on: BJ; experiment: cytotoxicity toward BJ-TERT fibroblasts, dose response, cell-based, RAS-independent, luminescence (AID 1933); format: functional; conditions: Homo sapiens
[16] = non-specific cell cytotoxicity, dose response, cytotoxicity control for PAX8 inhibitor project, plate reader, dry powder samples (AID 743021); format: functional, cell-based
[17] = HEK293T cytotoxicity, dose response, cytotoxicity control for miR-122 modulator project, cell-based, activator set, cherry-pick (AID 720690); format: functional;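 note: HEK293T human cells scored for general mammalian cytotoxicity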
[18] = tested on: BJ; experiment: cells; format: functional, cell-based; conditions: Homo sapiens
[19] = biological target: T4, Caspase-6 (Homo sapiens, UniProt P55212); experiment: human caspase-6 inhibitors, dose response, biochemical, VEID-R110 fluorescence, cherry-pick (AID 720632)
T4 sequence (P55212 whole entry): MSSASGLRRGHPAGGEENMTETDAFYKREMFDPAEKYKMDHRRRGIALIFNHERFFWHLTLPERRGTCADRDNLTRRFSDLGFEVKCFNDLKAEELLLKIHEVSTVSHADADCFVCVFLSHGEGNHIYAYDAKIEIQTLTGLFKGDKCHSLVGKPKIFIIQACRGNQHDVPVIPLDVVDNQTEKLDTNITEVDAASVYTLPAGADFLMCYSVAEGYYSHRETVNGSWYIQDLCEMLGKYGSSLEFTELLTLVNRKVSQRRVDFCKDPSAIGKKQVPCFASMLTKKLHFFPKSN

[20] = control 3'UTR Renilla luciferase suppression, dose response, counter-screen for Shn3 inhibitor project, cell-based, Clone20-Shn3RL, cherry-picked (AID 624133); format: functional
[21] = HepG2 cell cytotoxicity, dose response, cytotoxicity control for Shn3 inhibitor project, CellTiter-Glo, cherry-picked (AID 624134); format: functional, cell-based
[22] = cytotoxicity toward NIH3T3 fibroblasts, dose response, counter-screen, cell-based, ATP luminescence, mouse fibroblasts (AID 2010); format: functional;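 note: cells exposed to compound for about 90 hours before reading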
[23] = Shn3 3'UTR reporter inhibitors, dose response, cell-based, Clone20 osteoblasts, firefly luciferase, cherry-picked (AID 624132); format: functional;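 note: firefly luciferase luminescence from reporter carrying the Shn3 3'UTR in osteoblasts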
[24] = Luminescence Cell-Based Dose Response HTS to Identify Inhibitors of 5'UTR Stem-Loop Driven Prion Protein mRNA Translation in H4 Neuroglioblastoma Cells. [Related pubchem assays: 1827 (Project Summary), 1813 (Primary HTS)]; format: functional
[25] = inhibitors of intracellular T. cruzi replication, confirmation, NIH3T3 host cells, beta-gal luminescence (AID 2044); format: functional, cell-based;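 note: intracellular parasites grown in NIH/3T3 mouse fibroblasts as host cells; luminescent beta-galactosidase reporter signal from transgenic T. cruzi replicating inside host cells; inhibitors lower the luminescence signal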
[26] = inhibitors of firefly luciferase expression or activity, dose response, H4 neuroglioma cells, luminescence (AID 1990); format: functional, cell-based
[27] = inhibitors of SNCA 5'UTR-driven reporter translation, confirmation, H4 neuroglioma cells, luminescence (AID 1988); format: functional, cell-based

T2 sequence (P49327 whole entry, the tested form may be a part): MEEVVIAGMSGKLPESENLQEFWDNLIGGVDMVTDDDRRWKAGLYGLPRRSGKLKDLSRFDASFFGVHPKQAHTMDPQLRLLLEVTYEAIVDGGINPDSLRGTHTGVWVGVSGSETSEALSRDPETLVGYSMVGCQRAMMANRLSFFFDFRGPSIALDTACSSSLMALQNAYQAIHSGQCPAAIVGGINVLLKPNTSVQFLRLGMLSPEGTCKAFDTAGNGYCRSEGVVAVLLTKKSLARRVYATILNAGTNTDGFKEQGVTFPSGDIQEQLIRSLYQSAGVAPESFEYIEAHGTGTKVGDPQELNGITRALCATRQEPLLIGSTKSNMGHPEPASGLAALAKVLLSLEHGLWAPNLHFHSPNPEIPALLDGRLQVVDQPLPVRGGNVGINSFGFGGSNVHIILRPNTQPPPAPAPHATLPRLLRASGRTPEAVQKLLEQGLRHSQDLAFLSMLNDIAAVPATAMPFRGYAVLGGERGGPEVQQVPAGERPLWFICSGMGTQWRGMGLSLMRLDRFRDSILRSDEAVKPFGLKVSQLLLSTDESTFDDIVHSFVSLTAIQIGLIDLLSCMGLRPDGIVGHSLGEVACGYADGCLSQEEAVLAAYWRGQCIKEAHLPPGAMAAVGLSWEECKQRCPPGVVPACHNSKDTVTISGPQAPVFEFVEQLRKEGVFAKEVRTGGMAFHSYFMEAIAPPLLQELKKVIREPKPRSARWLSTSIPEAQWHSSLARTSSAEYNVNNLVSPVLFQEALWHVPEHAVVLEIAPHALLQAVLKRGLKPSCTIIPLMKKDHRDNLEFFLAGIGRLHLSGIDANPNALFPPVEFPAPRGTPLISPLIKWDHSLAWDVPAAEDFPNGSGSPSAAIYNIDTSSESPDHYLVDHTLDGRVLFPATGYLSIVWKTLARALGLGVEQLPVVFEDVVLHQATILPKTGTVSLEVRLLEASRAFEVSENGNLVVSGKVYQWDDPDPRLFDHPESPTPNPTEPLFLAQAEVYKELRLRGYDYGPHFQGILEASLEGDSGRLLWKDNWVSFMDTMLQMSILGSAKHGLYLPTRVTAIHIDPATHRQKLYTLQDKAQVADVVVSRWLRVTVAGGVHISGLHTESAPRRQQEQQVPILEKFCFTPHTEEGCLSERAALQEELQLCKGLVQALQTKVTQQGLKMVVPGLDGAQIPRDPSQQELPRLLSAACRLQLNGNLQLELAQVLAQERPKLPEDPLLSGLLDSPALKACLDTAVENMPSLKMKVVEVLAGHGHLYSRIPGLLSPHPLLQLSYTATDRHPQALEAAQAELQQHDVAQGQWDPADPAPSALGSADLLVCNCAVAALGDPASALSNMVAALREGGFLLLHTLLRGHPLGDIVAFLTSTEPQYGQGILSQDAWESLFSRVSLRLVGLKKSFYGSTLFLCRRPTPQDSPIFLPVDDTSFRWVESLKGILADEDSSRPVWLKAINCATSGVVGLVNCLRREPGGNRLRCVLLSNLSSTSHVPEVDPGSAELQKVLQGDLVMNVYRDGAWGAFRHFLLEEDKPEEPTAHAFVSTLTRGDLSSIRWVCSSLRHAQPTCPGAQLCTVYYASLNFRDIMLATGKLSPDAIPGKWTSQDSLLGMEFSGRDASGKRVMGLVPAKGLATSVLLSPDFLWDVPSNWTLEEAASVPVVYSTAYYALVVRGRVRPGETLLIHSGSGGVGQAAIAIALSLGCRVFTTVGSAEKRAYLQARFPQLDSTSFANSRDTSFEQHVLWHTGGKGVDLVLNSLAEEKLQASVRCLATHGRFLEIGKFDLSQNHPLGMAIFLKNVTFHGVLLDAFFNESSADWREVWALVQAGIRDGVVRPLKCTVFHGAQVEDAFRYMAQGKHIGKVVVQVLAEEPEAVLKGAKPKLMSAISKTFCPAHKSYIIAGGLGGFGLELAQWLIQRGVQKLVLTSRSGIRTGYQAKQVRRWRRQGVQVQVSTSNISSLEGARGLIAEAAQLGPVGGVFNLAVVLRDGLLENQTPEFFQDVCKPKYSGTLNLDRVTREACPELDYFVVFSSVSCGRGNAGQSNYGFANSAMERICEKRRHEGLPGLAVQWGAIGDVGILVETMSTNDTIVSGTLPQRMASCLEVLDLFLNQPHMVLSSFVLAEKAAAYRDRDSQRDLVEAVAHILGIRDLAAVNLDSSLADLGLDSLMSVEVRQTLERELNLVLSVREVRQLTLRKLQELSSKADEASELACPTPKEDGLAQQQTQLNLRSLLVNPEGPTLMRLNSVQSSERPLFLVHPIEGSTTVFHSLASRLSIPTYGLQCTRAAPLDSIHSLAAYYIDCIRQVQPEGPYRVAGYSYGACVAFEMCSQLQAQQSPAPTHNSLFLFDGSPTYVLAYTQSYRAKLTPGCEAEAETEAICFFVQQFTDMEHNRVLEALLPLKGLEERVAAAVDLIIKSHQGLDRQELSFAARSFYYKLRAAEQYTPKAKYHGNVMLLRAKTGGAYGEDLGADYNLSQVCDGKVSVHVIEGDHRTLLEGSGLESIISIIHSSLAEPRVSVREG
Paired box protein Pax-8, sequence (Q06710 whole entry): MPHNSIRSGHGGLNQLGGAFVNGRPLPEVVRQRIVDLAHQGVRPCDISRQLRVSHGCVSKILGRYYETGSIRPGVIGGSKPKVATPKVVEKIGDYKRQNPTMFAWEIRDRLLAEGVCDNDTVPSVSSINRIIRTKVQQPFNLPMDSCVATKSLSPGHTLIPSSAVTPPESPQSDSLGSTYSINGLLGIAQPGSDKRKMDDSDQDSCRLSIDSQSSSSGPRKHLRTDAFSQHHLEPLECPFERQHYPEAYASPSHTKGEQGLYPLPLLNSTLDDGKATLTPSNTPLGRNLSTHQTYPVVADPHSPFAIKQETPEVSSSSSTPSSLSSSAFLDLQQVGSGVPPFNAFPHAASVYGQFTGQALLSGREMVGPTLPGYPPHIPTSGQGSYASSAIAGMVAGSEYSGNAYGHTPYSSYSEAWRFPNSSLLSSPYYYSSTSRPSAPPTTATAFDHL

In the case of `CC1Cc2cc(-c3csc(NC(=O)Cc4cccs4)n3)ccc2N1S(C)(=O)=O` (configuration not stated), the AC50 [1] is reported as 5.65 µM (active), the IC50 [2] is reported as 3.11 µM (active) and the CC50 [3] is reported as > 40 µM (active). For the same compound, the IC50 [4] was 38 µM (inactive), the IC50 [5] was 7.01 µM (active) and the AC50 [6] was 54.5 µM (active). The IC50 [7] was 14.1 µM (active).
With `COc1ccccc1C1C(C(=O)c2ccccc2)=C(O)C(=O)N1CC(C)O` (configuration not stated) the Ki [8] was 24.6 µM (inactive).
In the case of `CCOC(=O)N1CCC(NC(=O)C2CCCN(Cc3nc(-c4ccc(CC)cc4)oc3C)C2)CC1` (configuration not stated), the IC50 [2] is reported as 9.26 µM (active).
In the case of `CCOc1ccccc1NC(=O)CSc1nccn1-c1ccccc1`, the Ki [8] is reported as > 66.7 µM (inactive).
For `Cc1onc(C(=O)N2CCN(C(c3ccccc3)c3ccccc3)CC2)c1[N+](=O)[O-]`, the EC50 [9] was 4.77 µM (active), the AC50 [10] was 10.8 µM (active) and the AC50 [11] was 66.8 µM (active). The EC50 [12] was > 150 µM (not active), the AC50 [13] was 5.28 µM (active) and the EC50 [14] was 6.63 µM (active). The EC50 [15] was 659 nM (inconclusive), the AC50 [16] was 3.3 µM (active) and the AC50 [17] was 3.14 µM (active). For the same compound, the EC50 [18] was 5.65 µM (active).
For `CCOc1cc(C(=O)O)ccc1OCCOc1ccccc1`, the AC50 [19] was 34 µM (active).
For `N#Cc1ccc(NC(=O)Nc2ccc(Oc3ccc(NC(=O)Nc4ccc(C#N)cc4)cc3)cc2)cc1`, the AC50 [20] was 13.1 µM (active), the AC50 [10] was 5.02 µM (active) and the AC50 [21] was 6.46 µM (active). The AC50 [17] was 6.66 µM (active), the EC50 [22] was > 60 µM (not active) and the AC50 [23] was 2.68 µM (active). For the same compound, the EC50 [24] was 10.1 µM (active), the EC50 [25] was 1.01 µM (active) and the EC50 [26] was > 120 µM (not active). For the same compound, the EC50 [27] was 8.67 µM (active).
For `O=C1Nc2ccccc2/C1=C1/SC(=S)N(CC2CCCO2)C1=O` (configuration not stated), the Ki [8] was > 66.7 µM (inactive).
